Experimental data as given in US9738634B2, “Heterocyclic amide compound and herbicide” (SYNGENTA PARTICIPATIONS AG, priority 2013, dated 2017).

Legend:
Assay type in all cases: in vivo
[1] = test system: green foxtail; assay: Test Example 3: weedkilling efficacy through soil treatment; E: green foxtail; details: soil treatment, treatment dosage 315 g/ha
Source text: (§1) Weedkilling Efficacy Test Through Soil Treatment
(§2) Sterilized diluvial soil was introduced into 21 cm long, 13 cm wide, 7 cm deep plastic boxes, and seeds of crabgrass, green foxtail, barnyard grass, wild oat, black-grass, Italian ryegrass, common wind-grass, Indian mallow, redroot pigweed, fig-leafed goosefoot, chickweed, catchweed, birds-eye speedwell, corn, soybean, rice, wheat, beet and rapeseed were each spot-sown, and covered with about 1.5 cm of soil. Next, emulsions of compounds of the present invention prepared according to compounding example 2 were diluted with water to give the specified dosages, and applied uniformly onto the soil surface with a small sprayer. The plants were grown by placing the plastic boxes in a greenhouse at 25 to 30° C., and 3 weeks after the pesticide treatment the effect on each type of plant was investigated on the basis of the assessment criteria of test example 1.
(§3) A: barnyard grass, B: bulrush, C: oval-leafed pondweed, D: crabgrass, E: green foxtail, F: barnyard grass, G: wild oat, H: black-grass, I: Italian ryegrass, J: common wind-grass, K: Indian mallow, L: redroot pigweed, M: fig-leafed goosefoot, N: chickweed, O: catchweed, p: birds-eye speedwell, a: transplanted rice, b: directly sown rice, c: corn, d: soybean, e: wheat, f: beet, g: rapeseed
(§4) Further, pesticide dosage (g/ha) indicates the concentration regulated such that treatment was with only the stated number of grams (g), when calculated per hectare (ha).

[2] = test system: chickweed; assay: Test Example 3: weedkilling efficacy through soil treatment; N: chickweed; details: soil treatment, treatment dosage 315 g/ha
Source text: as §1, §2, §3, §4

[3] = test system: bulrush; assay: Test Example 1: weedkilling efficacy, preemergent weed treatment in the submerged state; B: bulrush; details: treatment dosage 252 g/ha
Summary of the method: (§5)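 Pre-emergence application onto floodwater (4 cm, alluvial soil) on the day of sowing, dose expressed as g/ha from diluted emulsion formulation. Weeds sown with 2.5-leaf transplanted rice as crop; plants held at 25–30 °C in greenhouse and scored against assessment criteria after 3 weeks.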

[4] = test system: redroot pigweed; assay: Test Example 3: weedkilling efficacy through soil treatment; L: redroot pigweed; details: soil treatment, treatment dosage 315 g/ha
Source text: as §1, §2, §3, §4

[5] = test system: transplanted rice; assay: Test Example 1: preemergent weed treatment in the submerged state, effect on crop; a: transplanted rice; details: treatment dosage 252 g/ha
Summary of the method: as §5

[6] = test system: soybean; assay: Test Example 3: soil treatment, effect on crop; d: soybean; details: soil treatment, treatment dosage 315 g/ha
Source text: as §1, §2, §3, §4

[7] = test system: barnyard grass; assay: Test Example 1: weedkilling efficacy, preemergent weed treatment in the submerged state; A: barnyard grass; details: treatment dosage 252 g/ha
Summary of the method: as §5

[8] = test system: fig-leafed goosefoot; assay: Test Example 3: weedkilling efficacy through soil treatment; M: fig-leafed goosefoot; details: soil treatment, treatment dosage 315 g/ha
Source text: as §1, §2, §3, §4

[9] = test system: barnyard grass; assay: Test Example 2: weedkilling efficacy, growth period weed treatment in the submerged state; A: barnyard grass; details: treatment dosage 252 g/ha
Summary of the method: (§6)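 Weeds treated at the 1-2 leaf stage by application of diluted emulsion onto floodwater (4 cm depth, alluvial soil) at specified g/ha. Grown in greenhouse at 25 to 30° C; herbicidal effect rated three weeks after treatment.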

[10] = test system: oval-leafed pondweed; assay: Test Example 1: weedkilling efficacy, preemergent weed treatment in the submerged state; C: oval-leafed pondweed; details: treatment dosage 252 g/ha
Summary of the method: as §5

[11] = test system: crabgrass; assay: Test Example 3: weedkilling efficacy through soil treatment; D: crabgrass; details: soil treatment, treatment dosage 315 g/ha
Source text: as §1, §2, §3, §4

[12] = test system: directly sown rice; assay: Test Example 3: soil treatment, effect on crop; b: directly sown rice; details: soil treatment, treatment dosage 315 g/ha
Source text: as §1, §2, §3, §4

[13] = test system: oval-leafed pondweed; assay: Test Example 2: weedkilling efficacy, growth period weed treatment in the submerged state; C: oval-leafed pondweed; details: treatment dosage 252 g/ha
Summary of the method: as §6

[14] = test system: black-grass; assay: Test Example 3: weedkilling efficacy through soil treatment; H: black-grass; details: soil treatment, treatment dosage 315 g/ha
Source text: as §1, §2, §3, §4

[15] = test system: bulrush; assay: Test Example 2: weedkilling efficacy, growth period weed treatment in the submerged state; B: bulrush; details: treatment dosage 252 g/ha
Summary of the method: as §6

[16] = test system: Indian mallow; assay: Test Example 3: weedkilling efficacy through soil treatment; K: Indian mallow; details: soil treatment, treatment dosage 315 g/ha
Source text: as §1, §2, §3, §4

[17] = test system: Italian ryegrass; assay: Test Example 3: weedkilling efficacy through soil treatment; I: Italian ryegrass; details: soil treatment, treatment dosage 315 g/ha
Source text: as §1, §2, §3, §4

[18] = test system: wheat; assay: Test Example 3: soil treatment, effect on crop; e: wheat; details: soil treatment, treatment dosage 315 g/ha
Source text: as §1, §2, §3, §4

[19] = test system: corn; assay: Test Example 3: soil treatment, effect on crop; c: corn; details: soil treatment, treatment dosage 315 g/ha
Source text: as §1, §2, §3, §4

[20] = test system: wild oat; assay: Test Example 3: weedkilling efficacy through soil treatment; G: wild oat; details: soil treatment, treatment dosage 315 g/ha
Source text: as §1, §2, §3, §4

[21] = test system: beet; assay: Test Example 3: soil treatment, effect on crop; f: beet; details: soil treatment, treatment dosage 315 g/ha
Source text: as §1, §2, §3, §4

| Compound | E: green foxtail, weedkilling efficacy grade [1] | N: chickweed, weedkilling efficacy grade [2] | B: bulrush, weed kill grade [3] | L: redroot pigweed, weedkilling efficacy grade [4] | a: transplanted rice, effect on crop grade [5] | d: soybean, effect on crop grade [6] | A: barnyard grass, weed kill grade [7] | M: fig-leafed goosefoot, weedkilling efficacy grade [8] | A (barnyard grass) weedkilling efficacy grade [9] | C: oval-leafed pondweed, weed kill grade [10] | D: crabgrass, weedkilling efficacy grade [11] | b: directly sown rice, effect on crop grade [12] | C (oval-leafed pondweed) weedkilling efficacy grade [13] | H: black-grass, weedkilling efficacy grade [14] | B (bulrush) weedkilling efficacy grade [15] | K: Indian mallow, weedkilling efficacy grade [16] | I: Italian ryegrass, weedkilling efficacy grade [17] | e: wheat, effect on crop grade [18] | c: corn, effect on crop grade [19] | G: wild oat, weedkilling efficacy grade [20] | further results |
| --- | --- | --- | --- | --- | --- | --- | --- | --- | --- | --- | --- | --- | --- | --- | --- | --- | --- | --- | --- | --- | --- |
| Cc1cnc(NC(=O)C(C)(C)N2COCN(c3ccccc3)C2=O)s1 [A-1-08] | 5 (weed kill ratio 90% or more, (practically complete withering)) | 2 (weed kill ratio 20% or more, less than 40%) | 5 (weed kill ratio 90% or more, (practically complete withering)) | 4 (weed kill ratio 70% or more, less than 90%) | 0 (weed kill ratio 5% or less (practically no effect)) | 0 (weed kill ratio 5% or less (practically no effect)) | 5 (weed kill ratio 90% or more, (practically complete withering)) | 2 (weed kill ratio 20% or more, less than 40%) | 4 (weed kill ratio 70% or more, less than 90%) | 5 (weed kill ratio 90% or more, (practically complete withering)) | 5 (weed kill ratio 90% or more, (practically complete withering)) | 4 (weed kill ratio 70% or more, less than 90%) | 3 (weed kill ratio 40% or more, less than 70%) | 5 (weed kill ratio 90% or more, (practically complete withering)) | 5 (weed kill ratio 90% or more, (practically complete withering)) | 1 (weed kill ratio 5% or more, less than 20%) | 4 (weed kill ratio 70% or more, less than 90%) | 0 (weed kill ratio 5% or less (practically no effect)) | 1 (weed kill ratio 5% or more, less than 20%) | 3 (weed kill ratio 40% or more, less than 70%) | f: beet, effect on crop grade [21]: 0 (weed kill ratio 5% or less (practically no effect)) |
| Cc1cc(NC(=O)C(C)(C)N2COCN(c3ccccc3)C2=O)sn1 [A-1-10] | 4 (weed kill ratio 70% or more, less than 90%) | 0 (weed kill ratio 5% or less (practically no effect)) | 5 (weed kill ratio 90% or more, (practically complete withering)) | 4 (weed kill ratio 70% or more, less than 90%) | 0 (weed kill ratio 5% or less (practically no effect)) | 0 (weed kill ratio 5% or less (practically no effect)) | 3 (weed kill ratio 40% or more, less than 70%) | 4 (weed kill ratio 70% or more, less than 90%) | 0 (weed kill ratio 5% or less (practically no effect)) | 3 (weed kill ratio 40% or more, less than 70%) | 4 (weed kill ratio 70% or more, less than 90%) | 0 (weed kill ratio 5% or less (practically no effect)) | 0 (weed kill ratio 5% or less (practically no effect)) | 2 (weed kill ratio 20% or more, less than 40%) | 5 (weed kill ratio 90% or more, (practically complete withering)) | 3 (weed kill ratio 40% or more, less than 70%) | 4 (weed kill ratio 70% or more, less than 90%) | 0 (weed kill ratio 5% or less (practically no effect)) | 0 (weed kill ratio 5% or less (practically no effect)) | 0 (weed kill ratio 5% or less (practically no effect)) | f: beet, effect on crop grade [21]: 4 (weed kill ratio 70% or more, less than 90%) |
| CC(C)(C(=O)Nc1cccc(Cl)n1)N1COCN(c2ccccc2)C1=O [A-2-07] | 5 (weed kill ratio 90% or more, (practically complete withering)) | 4 (weed kill ratio 70% or more, less than 90%) | 5 (weed kill ratio 90% or more, (practically complete withering)) | 5 (weed kill ratio 90% or more, (practically complete withering)) | 4 (weed kill ratio 70% or more, less than 90%) | 4 (weed kill ratio 70% or more, less than 90%) | 5 (weed kill ratio 90% or more, (practically complete withering)) | 4 (weed kill ratio 70% or more, less than 90%) | 4 (weed kill ratio 70% or more, less than 90%) | 5 (weed kill ratio 90% or more, (practically complete withering)) | 5 (weed kill ratio 90% or more, (practically complete withering)) | – | 5 (weed kill ratio 90% or more, (practically complete withering)) | 5 (weed kill ratio 90% or more, (practically complete withering)) | 5 (weed kill ratio 90% or more, (practically complete withering)) | 0 (weed kill ratio 5% or less (practically no effect)) | 5 (weed kill ratio 90% or more, (practically complete withering)) | 3 (weed kill ratio 40% or more, less than 70%) | 4 (weed kill ratio 70% or more, less than 90%) | 5 (weed kill ratio 90% or more, (practically complete withering)) | f: beet, effect on crop grade [21]: 5 (weed kill ratio 90% or more, (practically complete withering)) |
| CC(C)(C(=O)Nc1cc(Cl)cc(Br)n1)N1COCN(c2ccccc2)C1=O [A-2-24] | 5 (weed kill ratio 90% or more, (practically complete withering)) | 4 (weed kill ratio 70% or more, less than 90%) | 5 (weed kill ratio 90% or more, (practically complete withering)) | 4 (weed kill ratio 70% or more, less than 90%) | 0 (weed kill ratio 5% or less (practically no effect)) | 1 (weed kill ratio 5% or more, less than 20%) | 5 (weed kill ratio 90% or more, (practically complete withering)) | 4 (weed kill ratio 70% or more, less than 90%) | 5 (weed kill ratio 90% or more, (practically complete withering)) | 5 (weed kill ratio 90% or more, (practically complete withering)) | 5 (weed kill ratio 90% or more, (practically complete withering)) | 4 (weed kill ratio 70% or more, less than 90%) | 5 (weed kill ratio 90% or more, (practically complete withering)) | 5 (weed kill ratio 90% or more, (practically complete withering)) | 5 (weed kill ratio 90% or more, (practically complete withering)) | 4 (weed kill ratio 70% or more, less than 90%) | 5 (weed kill ratio 90% or more, (practically complete withering)) | 4 (weed kill ratio 70% or more, less than 90%) | 0 (weed kill ratio 5% or less (practically no effect)) | 5 (weed kill ratio 90% or more, (practically complete withering)) | – |
